Experimental data taken from patent publication US9265773B2, “Tetracyclic heterocycle compounds and methods of use thereof for the treatment of viral diseases” (priority 2011, dated 2016).

What was measured:
[1] = system: HCV replicon genotype 1b; experiment: microbe, parasite or virus in culture; format: cell-based; details: genotype 1b replicon cells, incubated 96 hours, NS3/4A ELISA readout
[2] = system: HCV replicon genotype 1a; experiment: microbe, parasite or virus in culture; format: cell-based; details: genotype 1a replicon cells, incubated 96 hours, NS3/4A ELISA readout

Work on CN(O)C(=O)c1c(-c2ccc(F)cc2)oc2cc(N(C)S(C)(=O)=O)c(-c3ccc4c(n3)-c3cc5c(F)cccc5n3CO4)cc12 [Compound 155] yielded an IC50 ([1]; Hepatitis C virus, 96 h) of 17 nM and an IC50 ([2]; Hepatitis C virus, 96 h) of 7 nM.

In the case of CNC(=O)c1c(-c2ccc(F)cc2)oc2cc(N(C)S(C)(=O)=O)c(-c3cc4c(c[n+]3[O-])OCn3c-4cc4c(F)cccc43)cc12 [Compound 74], the IC50 ([1]; Hepatitis C virus, 96 h) is reported as 25 nM and the IC50 ([2]; Hepatitis C virus, 96 h) is reported as 15 nM.

In the case of CNC(=O)c1c(-c2ccc(F)cc2)oc2cc(N(C)S(C)(=O)=O)c(-c3ncc4c(n3)-c3cc5c(C#N)cccc5n3CO4)cc12 [Compound 26], the IC50 ([1]; Hepatitis C virus, 96 h) is reported as 1.2 nM and the IC50 ([2]; Hepatitis C virus, 96 h) is reported as 1.1 nM.

In the case of CCOC(=O)C(O)c1c2n(c3cccc(F)c13)COc1ccc(-c3cc4c(C(=O)NC)c(-c5ccc(F)cc5)oc4cc3N(C)S(C)(=O)=O)nc1-2 (centres unmarked) [Compound 206, ethyl 2-(11-fluoro-2-(2-(4-fluorophenyl)-3-(methylcarbamoyl)-6-(N-methylmethylsulfonamido)benzofuran-5-yl)-6H-pyrido[2′,3′:5,6][1,3]oxazino[3,4-a]indol-12-yl)-2-hydroxyacetate], the IC50 ([1]; Hepatitis C virus, 96 h) is reported as 23 nM and the IC50 ([2]; Hepatitis C virus, 96 h) is reported as 15 nM.

Work on CNC(=O)c1c(-c2ccc(F)cc2)oc2cc(N(CCF)S(C)(=O)=O)c(-c3ccc4c(n3)-c3cc5c(C#N)cccc5n3CO4)cc12 [Compound 191] yielded an IC50 ([1]; Hepatitis C virus, 96 h) of 2.2 nM and an IC50 ([2]; Hepatitis C virus, 96 h) of 1.7 nM.

CNC(=O)c1c(-c2ccc(F)cc2)oc2cc(N(C)S(C)(=O)=O)c(-c3ccc4c(n3)-c3cc5c(F)cccc5n3C(CN)O4)cc12 (centres unmarked) [Compound 114, 5-(6-(aminomethyl)-11-fluoro-6H-pyrido[2′,3′:5,6][1,3]oxazino[3,4-a]indol-2-yl)-2-(4-fluorophenyl)-N-methyl-6-(N-methylmethylsulfonamido)benzofuran-3-carboxamide] gave an IC50 ([1]; Hepatitis C virus, 96 h) of 18 nM and an IC50 ([2]; Hepatitis C virus, 96 h) of 7.3 nM.

With CNC(=O)c1c(-c2ccc(F)cc2)oc2cc(N(CCCF)S(C)(=O)=O)c(-c3ccc4c(n3)-c3cc5ccccc5n3CO4)cc12 [Compound 187] the IC50 ([1]; Hepatitis C virus, 96 h) was 9.4 nM and the IC50 ([2]; Hepatitis C virus, 96 h) was 7.5 nM.

With CNC(=O)c1c(-c2ccc(F)cc2)oc2cc(N(C)S(C)(=O)=O)c(-c3ccc4c(n3)-c3nc5c(F)cccc5n3CO4)cc12 [Compound 139] the IC50 ([1]; Hepatitis C virus, 96 h) was 1.9 nM and the IC50 ([2]; Hepatitis C virus, 96 h) was 1.9 nM.

In the case of CNC(=O)c1c(-c2ccc(F)cc2)oc2cc(N(C)S(C)(=O)=O)c(-c3ccc4c(c3)-c3cc5ccccc5n3CC(NCCO)CO4)cc12 (centres unmarked) [Compound 85], the IC50 ([1]; Hepatitis C virus, 96 h) is reported as 7.7 nM and the IC50 ([2]; Hepatitis C virus, 96 h) is reported as 13 nM.

Work on CNC(=O)c1c(-c2ccc(F)cc2)oc2cc(N(C)S(C)(=O)=O)c(-c3ccc4c(n3)-c3cc5c(F)cccc5n3C(CNS(C)(=O)=O)O4)cc12 (centres unmarked) [Compound 128, 5-(11-fluoro-6-(methylsulfonamidomethyl)-6H-pyrido[2′,3′:5,6][1,3]oxazino[3,4-a]indol-2-yl)-2-(4-fluorophenyl)-N-methyl-6-(N-methylmethylsulfonamido)benzofuran-3-carboxamide] yielded an IC50 ([1]; Hepatitis C virus, 96 h) of 0.9 nM and an IC50 ([2]; Hepatitis C virus, 96 h) of 2.6 nM.

CNC(=O)c1c(-c2ccc(F)cc2)oc2cc(N(C)S(C)(=O)=O)c(-c3ccc4c(n3)-c3cc5c(F)cccc5n3C(CN3CCOCC3)O4)cc12 (centres unmarked) [Compound 123, 5-(11-fluoro-6-(morpholinomethyl)-6H-pyrido[2′,3′:5,6][1,3]oxazino[3,4-a]indol-2-yl)-2-(4-fluorophenyl)-N-methyl-6-(N-methylmethylsulfonamido)benzofuran-3-carboxamide] was tested, and the IC50 ([1]; Hepatitis C virus, 96 h) was 3.6 nM and the IC50 ([2]; Hepatitis C virus, 96 h) was 3.4 nM.

Compound CNC(=O)c1c(-c2ccc(F)cc2)oc2cc(N(C)S(C)(=O)=O)c(-c3ccc4c(n3)-c3cc5c(F)cccc5n3C(C)(CO)O4)cc12 (centres unmarked) [Compound 92] has an IC50 [1] of 6.5 nM and an IC50 [2] of 4.2 nM.

Work on CNC(=O)c1c(-c2ccc(F)cc2)oc2cc(N(C)S(C)(=O)=O)c(-c3ccc4c(n3)-c3c(C#N)c5ccccc5n3CO4)cc12 [Compound 60, 5-(12-cyano-6H-pyrido[2′,3′:5,6][1,3]oxazino[3,4-a]indol-2-yl)-2-(4-fluorophenyl)-N-methyl-6-(N-methylmethylsulfonamido)benzofuran-3-carboxamide] yielded an IC50 ([1]; Hepatitis C virus, 96 h) of 31 nM and an IC50 ([2]; Hepatitis C virus, 96 h) of 69 nM.

Work on CCOC(=O)C(C)NCC1Oc2ccc(-c3cc4c(C(=O)NC)c(-c5ccc(F)cc5)oc4cc3N(C)S(C)(=O)=O)nc2-c2cc3c(F)cccc3n21 (centres unmarked) [Compound 118] yielded an IC50 ([1]; Hepatitis C virus, 96 h) of 4 nM and an IC50 ([2]; Hepatitis C virus, 96 h) of 19 nM.

CNC(=O)c1c(-c2ccc(F)cc2)oc2cc(N3CCCS3(=O)=O)c(-c3ccc4c(n3)-c3cc5c(F)cccc5n3CO4)cc12 [Compound 175, 6-(1,1-dioxidoisothiazolidin-2-yl)-5-(11-fluoro-6H-pyrido[2′,3′:5,6][1,3]oxazino[3,4-a]indol-2-yl)-2-(4-fluorophenyl)-N-methylbenzofuran-3-carboxamide] gave an IC50 ([1]; Hepatitis C virus, 96 h) of 3.1 nM and an IC50 ([2]; Hepatitis C virus, 96 h) of 5.3 nM.

With CNC(=O)c1c(-c2ccc(F)cc2)oc2cc(N(CCCF)S(C)(=O)=O)c(-c3ccc4c(n3)-c3cc5c(C#N)cccc5n3CO4)cc12 [Compound 194] the IC50 ([1]; Hepatitis C virus, 96 h) was 2.3 nM and the IC50 ([2]; Hepatitis C virus, 96 h) was 1.9 nM.

CNC(=O)c1c(-c2ccc(F)cc2)oc2cc(C(N)=O)c(-c3ccc4c(n3)-c3cc5c(F)cccc5n3CO4)cc12 [Compound 183, 5-(11-fluoro-6H-pyrido[2′,3′:5,6][1,3]oxazino[3,4-a]indol-2-yl)-2-(4-fluorophenyl)-N3-methylbenzofuran-3,6-dicarboxamide] gave an IC50 ([1]; Hepatitis C virus, 96 h) of 7.1 nM and an IC50 ([2]; Hepatitis C virus, 96 h) of 2 nM.

Compound CNC(=O)c1c(-c2ccc(F)cc2)oc2cc(N(C)S(C)(=O)=O)c(-c3ccc4c(n3)-c3cc5c(C#N)cccc5n3CO4)cc12 [Compound 12] has an IC50 ([1]; Hepatitis C virus, 96 h) of 1.7 nM and an IC50 ([2]; Hepatitis C virus, 96 h) of 1.6 nM.

CNC(=O)c1c(-c2ccc(F)cc2)oc2cc(N3CCCC3=O)c(-c3ccc4c(n3)-c3cc5c(F)cccc5n3CO4)cc12 [Compound 168, 5-(11-fluoro-6H-pyrido[2′,3′:5,6][1,3]oxazino[3,4-a]indol-2-yl)-2-(4-fluorophenyl)-N-methyl-6-(2-oxopyrrolidin-1-yl)benzofuran-3-carboxamide] was tested, and the IC50 ([1]; Hepatitis C virus, 96 h) was 2.8 nM and the IC50 ([2]; Hepatitis C virus, 96 h) was 3.3 nM.

In the case of CC(C)NC(=O)c1c(-c2ccc(F)cc2)oc2cc(N(C)S(C)(=O)=O)c(-c3ccc4c(n3)-c3cc5c(F)cccc5n3CO4)cc12 [Compound 158], the IC50 ([1]; Hepatitis C virus, 96 h) is reported as 24 nM and the IC50 ([2]; Hepatitis C virus, 96 h) is reported as 42 nM.

Compound CNC(=O)c1c(-c2ccc(F)cc2)oc2cc(N(CCCF)S(C)(=O)=O)c(-c3ccc4c(n3)-c3cc5c(F)cccc5n3CO4)cc12 [Compound 192] has an IC50 ([1]; Hepatitis C virus, 96 h) of 7.1 nM and an IC50 ([2]; Hepatitis C virus, 96 h) of 4.6 nM.

CNC(=O)c1c(-c2ccc(F)cc2)oc2ccc(-c3ccc4c(n3)-c3cc5c(F)cccc5n3CO4)cc12 [Compound 162, 5-(11-fluoro-6H-pyrido[2′,3′:5,6][1,3]oxazino[3,4-a]indol-2-yl)-2-(4-fluorophenyl)-N-methylbenzofuran-3-carboxamide] showed an IC50 ([1]; Hepatitis C virus, 96 h) of 18 nM and an IC50 ([2]; Hepatitis C virus, 96 h) of 29 nM.

CNC(=O)c1c(-c2ccc(F)cc2)oc2cc(N(C)S(C)(=O)=O)c(-c3ccc4c(c3)-c3cc5ccccc5n3CC(N(C)CCO)CO4)cc12 (centres unmarked) [Compound 86] was tested, and the IC50 ([1]; Hepatitis C virus, 96 h) was 12 nM and the IC50 ([2]; Hepatitis C virus, 96 h) was 17 nM.

In the case of CCNC(=O)C1Oc2ccc(-c3cc4c(C(=O)NC)c(-c5ccc(F)cc5)oc4cc3N(C)S(C)(=O)=O)nc2-c2cc3c(F)cccc3n21 (centres unmarked) [Compound 108], the IC50 [1] is reported as 2.4 nM and the IC50 [2] is reported as 14 nM.

In the case of CNC(=O)c1c(-c2ccc(F)cc2)oc2cc(N(C)S(C)(=O)=O)c(-c3ncc4c(n3)-c3cc5c(F)cccc5n3CCO4)cc12 [Compound 8], the IC50 ([1]; Hepatitis C virus, 96 h) is reported as 2.1 nM and the IC50 ([2]; Hepatitis C virus, 96 h) is reported as 1.6 nM.

CNC(=O)c1c(-c2ccc(F)cc2)oc2cc(N(CC(F)F)S(C)(=O)=O)c(-c3ccc4c(n3)-c3cc5c(C#N)cccc5n3CO4)cc12 [Compound 188] showed an IC50 ([1]; Hepatitis C virus, 96 h) of 3.7 nM and an IC50 ([2]; Hepatitis C virus, 96 h) of 3.8 nM.

In the case of CNC(=O)c1c(-c2ccc(F)cc2)oc2cc(N(C)S(C)(=O)=O)c(-c3ccc4c(c3)-c3c(Cl)c5ccccc5n3C(C3CC3)O4)cc12 (centres unmarked) [Compound 131, 5-(12-chloro-6-cyclopropyl-6H-benzo[5,6][1,3]oxazino[3,4-a]indol-2-yl)-2-(4-fluorophenyl)-N-methyl-6-(N-methylmethylsulfonamido)benzofuran-3-carboxamide], the IC50 ([1]; Hepatitis C virus, 96 h) is reported as 50 nM and the IC50 ([2]; Hepatitis C virus, 96 h) is reported as 79 nM.

Compound CNC(=O)c1c(-c2ccc(F)cc2)oc2cc(N(CCF)S(C)(=O)=O)c(-c3ncc4c(n3)-c3cc5c(F)cccc5n3CO4)cc12 [Compound 193] has an IC50 ([1]; Hepatitis C virus, 96 h) of 1.7 nM and an IC50 ([2]; Hepatitis C virus, 96 h) of 1.3 nM.

With CNC(=O)c1c(-c2ccc(F)cc2)oc2cc(N(C)S(C)(=O)=O)c(-c3cc4c(cn3)OCn3c-4cc4c(C#N)cccc43)cc12 [Compound 23] the IC50 ([1]; Hepatitis C virus, 96 h) was 1.2 nM and the IC50 ([2]; Hepatitis C virus, 96 h) was 0.9 nM.

CNC(=O)c1c(-c2ccc(F)cc2)oc2cc(N3CC(=O)NC3=O)c(-c3ccc4c(n3)-c3cc5c(F)cccc5n3CO4)cc12 [Compound 179, 6-(2,4-dioxoimidazolidin-1-yl)-5-(11-fluoro-6H-pyrido[2′,3′:5,6][1,3]oxazino[3,4-a]indol-2-yl)-2-(4-fluorophenyl)-N-methylbenzofuran-3-carboxamide] showed an IC50 ([1]; Hepatitis C virus, 96 h) of 7.4 nM and an IC50 ([2]; Hepatitis C virus, 96 h) of 32 nM.

Work on CNC(=O)c1c(-c2ccc(F)cc2)oc2cc(N(CC(C)O)S(C)(=O)=O)c(-c3ccc4c(n3)-c3cc5c(F)cccc5n3CO4)cc12 (centres unmarked) [Compound 203] yielded an IC50 [1] of 8.9 nM and an IC50 [2] of 2.9 nM.
